Source: patent publication US8507464B2, “Phosphoramidate alkylator prodrugs” (Threshold Pharmaceuticals, Inc., priority 2005, dated 2013)
≈ marks a conversion by molar mass, not a printed value. Where two headings read alike, the source gives them in different places.

Tests used:
HT29 xenograft = assay: HT-29 xenograft mouse model with CDDP (Example 52); type: in vivo; conditions: Group 2; tumor volumes at day 25; vs vehicle group; CDDP in saline IV alone
Protocol: Female CB17/SCID mice (purchased from Charles River, Cambridge, Mass.), 7-8 weeks of age, were allowed to acclimatize for at least three days, and handled under pathogen-free conditions. Human colon carcinoma cell line HT29 was obtained from the American Type Culture Collection. The cell lines were cultured and harvested as described in Example 47 and inoculated at 3×10^6 cells/animal in the peritoneal subcutaneous space. When the tumors grew to an average volume of 100 mm^3 (day 8), each group of mice (ten per group) was administered, for three weeks, as tabulated in the table below: Compound 25 in saline, administration route—i.p., administrated 2 h before CDDP on the days the combination therapy is scheduled and CDDP (in saline, IV).
The body weight and tumor volume were determined as described in Example 47. Data are based on tumor volumes at day 25 when tumors in the vehicle group had reached sufficient size to require that the mice be sacrificed.

spheroids = assay: Spheroid combination with cisplatin or daunorubicin, clonogenic survival; type: cell-based, human; conditions: 2 h exposure
Protocol: The phosphoramidate alkylator prodrug was combined simultaneously with cisplatin or daunorubicin and the spreroids exposed for 2 h to the combination, followed by measurement of clonogenic survival.

[1] = system: H460 lung carcinoma spheroids; assay: Spheroid model, clonogenic survival; conditions: read-out: IC90 H460 Spheroid 10% O2
[2] = system: H460 cells exposed as monolayers; assay: Clonogenic survival of monolayer cells (Example 35)
HT29 [3] = assay: Anti-proliferation assay, hypoxia vs normoxia (Table 1B); conditions: for IC50: Homo sapiens
HT29 [4] = assay: Clonogenic assay, hypoxia vs normoxia (Table 1B); conditions: for IC90: Homo sapiens
[5] = Plasma stability (Table 2B); conditions: 30 min
human H460 cells = assay: Clonogenic survival assay, hypoxia vs normoxia (Table 1A); conditions: for IC90: Homo sapiens; for HCR C: ratio of IC90 in normoxia and hypoxia
DX-5 = assay: Anti-proliferation assay, hypoxia vs normoxia (Table 1B)
[6] = Pharmacokinetics after intravenous or intraperitoneal administration in mice (Table 2B); conditions: plasma, 50 mg/kg
H460 cell line = assay: Anti-proliferation assay, hypoxia vs normoxia (Table 1A); conditions: for IC50: Homo sapiens; for HCR P: ratio of IC50 in normoxia and hypoxia
HT29 cells = assay: Antiproliferation assay (Alamar Blue), anoxia vs air; conditions: Homo sapiens, HT-29, 2 h
[7] = type: physicochemical; conditions: glassy carbon, Ag/AgCl reference
NCI-H460 cells [8] = assay: Antiproliferation assay - oxygen dependence; type: cell-based, human
Description: . […] The calculated IC50 values (μM) are tabulated in Table Y1 (H460 cells) or Table Y2 (HT29 cells) below.

MES-SA/Dx5 cells = assay: Antiproliferation assay (Alamar Blue), anoxia vs air; conditions: Homo sapiens, MES-SA/Dx5, 2 h
NCI-H460 cells [9] = assay: as above
in vivo = conditions: 50 mg/kg
[10] = system: HT-29 human colon carcinoma xenograft; assay: HT-29 human colon carcinoma xenograft mouse model (Example 47); type: in vivo; conditions: Group 8: 5FU 10 mg/kg; vs vehicle
Protocol: Female CB17/SCID mice (purchased from Charles River, Cambridge, Mass.), 7-8 weeks of age, were allowed to acclimatize for at least three days, and handled under pathogen-free conditions. Human colon carcinoma cell line HT-29 was obtained from the American Type Culture Collection. The cell lines were cultured in RPMI 1640 media supplemented with 10% fetal bovine serum. Cells were maintained in a 37° C. incubator with 5% CO2. The HT-29 cells were harvested from culture and inoculated at 3×10^6 cells/animal in the peritoneal subcutaneous space. When the tumors grew to an average volume of 100 mm^3 (day 8), each group of 10 mice was administered, for three weeks, vehicle alone (saline and PEG (10 mL/kg each), Group 1), Compound 36 alone (dissolved in 30% cyclodextrin in PBS) at a daily dose of 20, 60, or 200 mg/kg (Groups 2, 3 and 4, respectively), and Compound 36 at a daily dose of 20, 60, and 200 mg/kg given 2-3 hours after a dose of 10 mg/kg of 5FU (in saline) (Group 5, 6 and 7, respectively) and compared to a group receiving only 5FU at 10 mg/kg (Group 8) as tabulated below.
The body weight of each mouse was recorded twice per week. Growth of each xenograft was monitored by externally measuring tumors in two dimensions using a digital caliper twice per week. Tumor volume (V) was determined by the following equation: V=(L×W^2)/2, where L is the length and W is the width of a xenograft. Tumor volumes were measured twice weekly.

[11] = Solubility in saline at room temperature; type: physicochemical; conditions: saline or isotonic
NCI-H460 cells [12] = assay: Clonogenic assay - oxygen dependence; conditions: Homo sapiens
[13] = system: mouse (MLM) liver microsomal proteins; type: in vitro ADME; conditions: Table 2B
[14] = 25 mg/kg i.p., 10% PEG, CD-1 mice
[15] = HT-29, read-out: HT29 P H (proliferation IC50, hypoxia)
[16] = HT-29, read-out: HT29 C H (clonogenic IC90, hypoxia)
[17] = NCI-H460, read-out: Hypoxia C (clonogenic IC90)
[18] = NCI-H460, read-out: Normoxia C (clonogenic IC90)
[19] = CD-1, Balb/c for Compound 1, mouse, ip
[20] = CD-1, Balb/c for Compound 1, mouse, iv
[21] = NCI-H460, read-out: Hypoxia P (proliferation IC50)
[22] = NCI-H460, read-out: Normoxia P (proliferation IC50)
[23] = Homo sapiens, NCI-H460, read-out: IC50 in H460 cells, 0.6% O2
[24] = Homo sapiens, NCI-H460, read-out: IC50 in H460 cells, 1% O2
[25] = Homo sapiens, NCI-H460, read-out: IC50 in H460 cells, Air
[26] = Homo sapiens, NCI-H460, read-out: IC50 in H460 cells, N2
[27] = Homo sapiens, NCI-H460, 2 h, read-out: IC50 H460 Air, air, 2 h exposure
[28] = Homo sapiens, NCI-H460, 2 h, read-out: IC50 H460 Anoxia, anoxia, 2 h exposure
[29] = Homo sapiens, NCI-H460, read-out: IC50 in H460 cells, 0.1% O2

N.N.[Cl][Pt][Cl] [Cisplatin, cis-Diaminedichloroplatinum (II), reference compound]
% Inhibition vs Group 1 (HT29 xenograft): 24.2%
IC50 (spheroids; read-out: IC50 (μM), spheroids, cisplatin combination experiment): 14 µM
IC90 ([1]; 2 h exposure, 10% O2): 8 µM
IC90 ([2]; read-out: IC90 H460 Monolayer 0.6% O2, 2 h exposure, 0.6% O2): 7.7 µM
IC90 ([2]; read-out: IC90 H460 Monolayer Air, 2 h exposure, Air): 7.3 µM
IC90 ([2]; read-out: IC90 H460 Monolayer N2, 2 h exposure, N2): 4.2 µM

Cn1c(COP(N)(=O)N(CCCl)CCCl)cnc1[N+](=O)[O-] (centres unmarked) [Compound 1]
HT29 HCR P (HT29 [3]): >2
IC50 (HT29 [3]; [15]): 50 µM
IC50 (HT29 [3]; HT-29, read-out: HT29 P N (proliferation IC50, normoxic)): 100 µM
HT29 HCR C (HT29 [4]): >100
IC90 (HT29 [4]; [16]): 0.4 µM
IC90 (HT29 [4]; HT-29, read-out: HT29 C N (clonogenic IC90, normoxic)): 100 µM
Plasma stability (% at 30 min) [5]: 100%
IC90 (human H460 cells; [17]): 0.35 µM
IC90 (human H460 cells; [18]): 75 µM
HCR C (human H460 cells): 200
DX-5 HCR (DX-5): >100
IC50 (DX-5; read-out: DX-5 P H (proliferation IC50, hypoxia)): 1 µM
IC50 (DX-5; read-out: DX-5 P N (proliferation IC50, normoxic)): > 100 µM
Cmax [6, 19]: 29900 ng/mL
AUC [6, 20]: 12500 ng·h/mL
Cmax [6, 20]: 35000 ng/mL
Vd [6, 20]: 1.48 L/kg
half-life [6, 20]: 15.6 min
half-life ([6]; mouse, ip): 15 min
IC50 (H460 cell line; [21]): 0.4 µM
IC50 (H460 cell line; [22]): 72 µM
HCR P (H460 cell line): 180
IC50 (HT29 cells; read-out: IC50 HT29 Air): > 100 µM
IC50 (HT29 cells; read-out: IC50 HT29 Anoxia): 50 µM
IC90 ([1]; Homo sapiens, NCI-H460, 2 h): > 100 µM
Reduction Potentials, 100 mV/sec ([7]; scan rate 100 mV/sec): −596 mV
Reduction Potentials, 10,000 mV/sec ([7]; scan rate 10,000 mV/sec): −638 mV
IC50 (NCI-H460 cells [8]; Homo sapiens, NCI-H460, read-out: IC50 in H460 cells, 0.3% O2): 10 µM
IC50 (NCI-H460 cells [8]; [23]): 7 µM
IC50 (NCI-H460 cells [8]; [24]): 50 µM
IC50 (NCI-H460 cells [8]; [25]): 100 µM
IC50 (NCI-H460 cells [8]; [26]): 0.3 µM
IC50 (MES-SA/Dx5 cells; read-out: IC50 MES-SA/Dx5 Air): > 100 µM
IC50 (MES-SA/Dx5 cells; read-out: IC50 MES-SA/Dx5 Anoxia): 1 µM
IC90 ([2]; Homo sapiens, NCI-H460, 2 h, read-out: IC90 H460 Monolayer Air): 75 µM
IC90 ([2]; Homo sapiens, NCI-H460, 2 h, read-out: IC90 H460 Monolayer N2): 0.35 µM
IC50 (NCI-H460 cells [9]; [27]): 72 µM
IC50 (NCI-H460 cells [9]; [28]): 0.4 µM
Cmax (in vivo; Balb/c, mouse, ip): 29900 ng/mL
Tmax (in vivo; Balb/c, mouse, ip): 15 min
AUC (in vivo; Balb/c, mouse, iv): 12500 ng·h/mL
Cmax (in vivo; Balb/c, mouse, iv): 35000 ng/mL
Tmax (in vivo; Balb/c, mouse, iv): 5 min
half-life (in vivo; Balb/c, mouse, iv): 15.3 min

O=c1[nH]cc(F)c(=O)[nH]1 [Compound 5FU, 5-fluoro-2,4(1H,3H)-pyrimidinedione, reference compound]
% Inhibition vs Group 1 [10]: 38.7%

Cn1c([N+](=O)[O-])cnc1COP(=O)(NCCCl)NCCCl [Compound 10]
solubility [11]: 10000 µg/mL (≈ 27.8 mM)
IC50 (H460 cell line; [21]): 100 µM
IC50 (H460 cell line; [22]): > 100 µM
HCR P (H460 cell line): >1
IC50 (NCI-H460 cells [8]; [29]): > 100 µM
IC50 (NCI-H460 cells [8]; [23]): > 100 µM
IC50 (NCI-H460 cells [8]; [24]): > 100 µM
IC50 (NCI-H460 cells [8]; Homo sapiens, NCI-H460; read-out: IC50 in H460 cells, Air): > 100 µM
IC50 (NCI-H460 cells [8]; Homo sapiens, NCI-H460; read-out: IC50 in H460 cells, N2): > 100 µM
IC50 (NCI-H460 cells [9]; [27]): > 100 µM
IC50 (NCI-H460 cells [9]; [28]): ≥ 100 µM

O=[N+]([O-])c1ccc(COP(=O)(NCCCl)NCCCl)o1 [Compound 23]
IC50 (HT29 [3]; [15]): 7.5 µM
IC90 (HT29 [4]; [16]): 2 µM
IC90 (NCI-H460 cells [12]; NCI-H460, read-out: IC90 H460 0.6% O2): 0.6 µM
IC90 (NCI-H460 cells [12]; NCI-H460, read-out: IC90 H460 Air): 5 µM
IC90 (NCI-H460 cells [12]; NCI-H460, read-out: IC90 H460 N2): 0.3 µM
Plasma stability (% at 30 min) [5]: 84%
IC90 (human H460 cells; [17]): 0.2 µM
IC90 (human H460 cells; [18]): 10 µM
HCR C (human H460 cells): 50
clearance ([6]; CD-1 (Compounds 5, 23, 36), Balb/c (Compound 1), mouse, iv): 368 mL/min/kg
AUC ([6]; CD-1, mouse, ip): 3500 ng·h/mL
Cmax [6, 19]: 8500 ng/mL
AUC [6, 20]: 2300 ng·h/mL
Cmax [6, 20]: 7800 ng/mL
Vd [6, 20]: 3.3 L/kg
half-life [6, 20]: 9 min
half-life ([6]; mouse, ip): 9.6 min
IC50 (H460 cell line; [21]): 0.04 µM
IC50 (H460 cell line; [22]): 5 µM
HCR P (H460 cell line): 125
IC50 (HT29 cells; read-out: IC50 HT29 Anoxia): 7.5 µM
IC50 (NCI-H460 cells [8]; [29]): 5 µM
IC50 (NCI-H460 cells [8]; [23]): 6 µM
IC50 (NCI-H460 cells [8]; [24]): 5 µM
IC50 (NCI-H460 cells [8]; [25]): 5 µM
IC50 (NCI-H460 cells [8]; [26]): 0.05 µM
Metabolic stability (MLM) (% at 30 min) [13]: 71%
Cmax (in vivo; CD-1, mouse, ip): 8500 ng/mL
Tmax (in vivo; CD-1, mouse, ip): 5 min
half-life (in vivo; CD-1, mouse, ip): 9.6 min
Cmax (in vivo; CD-1, mouse, iv): 7800 ng/mL
Tmax (in vivo; CD-1, mouse, iv): 5 min
half-life (in vivo; CD-1, mouse, iv): 8.87 min

Cn1c([N+](=O)[O-])cnc1COP(=O)(NCCBr)NCCBr [Compound 73]
solubility [11]: 10000 µg/mL (≈ 22.3 mM)

CC(OP(=O)(NCCBr)NCCBr)c1ncc([N+](=O)[O-])n1C (centres unmarked) [Compound 85]
Cmax [14]: 3930 ng/mL
Tmax [14]: 5.00 min
half-life [14]: 10.0 min
IC50 (NCI-H460 cells [9]; read-out: IC50 H460 Anoxia, anoxia, 2 h exposure): 0.7 µM

Cn1c([N+](=O)[O-])cnc1COP(=O)(N(CCCl)CCCl)N(CCCl)CCCl [Compound 155]
solubility [11]: < 1000 µg/mL

COc1cccc2c1C(=O)c1c(O)c3c(c(O)c1C2=O)C[C@@](O)(C(C)=O)C[C@@H]3O[C@H]1C[C@H](N)[C@H](O)[C@H](C)O1 [Daunorubicin, reference compound]
IC50 (spheroids; Homo sapiens, read-out: IC50 (μM), spheroids, daunorubicin combination experiment): 17 µM
IC90 ([1]; Homo sapiens, NCI-H460, 2 h): 19 µM
IC90 ([2]; Homo sapiens, NCI-H460, 2 h, read-out: IC90 H460 Monolayer (oxygen column not identifiable)): 0.16 µM
